These are literature values, as cited in US20220378756A1, “ACTIVATING PYRUVATE KINASE R” (FORMA Therapeutics, Inc., priority 2019, published 2022).

Where two headings read alike, the source gives them in different places.

Data set [1] concerns the target T1, aromatase (Homo sapiens, UniProt P11511).
T1 sequence (P11511 1-503): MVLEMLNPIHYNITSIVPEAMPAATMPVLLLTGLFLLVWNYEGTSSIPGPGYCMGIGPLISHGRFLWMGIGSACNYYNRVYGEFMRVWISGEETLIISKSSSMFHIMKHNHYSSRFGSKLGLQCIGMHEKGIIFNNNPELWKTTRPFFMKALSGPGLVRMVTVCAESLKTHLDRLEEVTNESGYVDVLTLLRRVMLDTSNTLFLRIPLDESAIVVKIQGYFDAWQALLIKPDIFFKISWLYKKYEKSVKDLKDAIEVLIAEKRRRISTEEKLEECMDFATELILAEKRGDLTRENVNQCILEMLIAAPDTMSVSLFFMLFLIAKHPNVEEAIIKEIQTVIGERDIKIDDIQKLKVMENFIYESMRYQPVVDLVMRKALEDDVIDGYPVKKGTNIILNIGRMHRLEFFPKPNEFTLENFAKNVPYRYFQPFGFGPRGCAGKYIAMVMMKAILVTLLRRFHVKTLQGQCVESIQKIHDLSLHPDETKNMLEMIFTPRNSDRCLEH
The settings on record: Yang et al. 2018; Grace et al. 2019; cited from earlier work.

For data set [2] the following is noted: cited from earlier work.

Turning to `O=C(c1ccc(NS(=O)(=O)c2cccc3cccnc23)cc1)N1CCN(CC2CC2)CC1` [AG-348], in data set [1], the aromatase inhibition entry is listed as “Aromatase inhibition has been observed”.
On to `CC(C)n1nccc1-c1ncccc1COc1cccc(O)c1C=O` [voxelotor, 2-hydroxy-6-((2-(1-isopropyl-1H-pyrazol-5-yl)pyridin-3-yl)methoxy)benzaldehyde], for which, in data set [2] (plasma), the “AUC increase with high-fat, high-calorie meal vs fasted” value is 42%; the “Cmax increase with high-fat, high-calorie meal vs fasted” value is listed as 95%; the “steady state AUC higher in HbSC vs HbSS genotype patients” value is 23%; the “steady state Cmax higher in HbSC vs HbSS genotype patients” value is reported as 15%. For the same compound, in data set [2] (whole blood), the “AUC increase with high-fat, high-calorie meal vs fasted” value is 42%; the “Cmax increase with high-fat, high-calorie meal vs fasted” value is listed as 45%; the “steady state AUC higher in HbSC (n=11) vs HbSS (n=220) genotype patients” value is 50%; the “steady state Cmax higher in HbSC (n=11) vs HbSS (n=220) genotype patients” value is reported as 45%.
